Test system: patients with postpartum depression (PPD)
Experiment: Clinical trial of inhaled 5-MeO-DMT (IDR) in patients with postpartum depression
Experimental: The single-arm, open-label clinical trial will involve 15 adult female patients with clinically diagnosed postpartum depression (PPD).
The second dose (12 mg) will only be administered if: • a. A peak experience (total score of ≥75) has not been achieved following the 6 mg dose, and • b. The 6 mg dose was safe and well-tolerated according to the investigator, • c. Any psychoactive effects (PsE) of the prior dose have subsided, and • d. Pre-dose vital parameters and forced expiratory volume in one second (FEV1) are in normal range, or if outside of the normal range, are not clinically significant according to the investigator. • 3. Similarly, a third dose (18 mg) will only be administered if: • a. A peak experience (total score of ≥75) has not been achieved following the 12 mg dose, and • b. The 12 mg dose was safe and well-tolerated according to the investigator, and • c. Any PsE of the prior dose have subsided, and • d. Pre-dose vital parameters and forced expiratory volume in one second (FEV1) are in normal range, or if outside of the normal range, are not clinically significant according to the investigator.
The patients will be assessed for a peak psychedelic experience (based on a patient-scored visual analogue scale, the PE scale), sedation, and other endpoints after dosing.
Follow-up visits are planned for Day 1, and Day 7 after the dosing day.
The following criteria must be met by all patients considered for clinical trial participation: • 1. Is female and in the age range between 18 and 45 years (inclusive) at screening. • 2. Has a body mass index (BMI) in the range of 18.5 and 35 kg/m^2 (inclusive) at screening. • 3. Meets the trial criteria for PPD as assessed by a trial psychiatrist or registered psychologist: • a. Diagnosis of Major Depressive Disorder without psychotic features, confirmed by the Mini-International Neuropsychiatric Interview (MINI), with peri-partum onset that began no earlier than gestation and no later than the first 4 weeks postpartum. • b. Has a Montgomery-Åsberg Depression Rating Scale (MADRS) total score of equal to or greater than 28 at screening and pre-dose on Day 0. • 6. […] Patients must have a negative pregnancy test at screening and on the pre-test day (Day−1). • 5. Is willing to delay start of other antidepressant or anxiety medication until after the end of the trial at Day 7 and agrees to keep any psychotherapy unchanged during the trial.

`COc1ccc2[nH]cc(CCN(C)C)c2c1` [5-MeO-DMT] was tested, and the “ECG, safety laboratory analyses, CADSS” value (PPD patient 1) was “unremarkable”, the “MADRS response (at least 50% improvement) and MADRS remission (total score 10 or less)” value (PPD patient 1) was “fulfilled standard criteria” and the “reported adverse events (mild, resolved spontaneously)” value (PPD patient 1) was “cramping left abdominal pain and headache”. For the same molecule, the “MADRS Apparent sadness improvement” value (PPD patient 1, 2 hr) was 5, the “MADRS Apparent sadness score” value (PPD patient 1, 2 hr) was 0 and the “MADRS Concentration Difficulties improvement” value (PPD patient 1, 2 hr) was 0. The “MADRS Concentration Difficulties score” value (PPD patient 1, 2 hr) was 0, the “MADRS Inability to Feel improvement” value (PPD patient 1, 2 hr) was 3 and the “MADRS Inability to Feel score” value (PPD patient 1, 2 hr) was 0. For the same molecule, the “MADRS Inner Tension improvement” value (PPD patient 1, 2 hr) was 5, the “MADRS Inner Tension score” value (PPD patient 1, 2 hr) was 0 and the “MADRS Lassitude improvement” value (PPD patient 1, 2 hr) was 3. For the same molecule, the “MADRS Lassitude score” value (PPD patient 1, 2 hr) was 0, the “MADRS Pessimistic Thoughts improvement” value (PPD patient 1, 2 hr) was 4 and the “MADRS Pessimistic Thoughts score” value (PPD patient 1, 2 hr) was 0. The “MADRS Reduced Sleep improvement” value (PPD patient 1, 2 hr) was 0, the “MADRS Reduced Sleep score” value (PPD patient 1, 2 hr) was 5 and the “MADRS Reduced appetite improvement” value (PPD patient 1, 2 hr) was 0. The “MADRS Reduced appetite score” value (PPD patient 1, 2 hr) was 0, the “MADRS Reported sadness improvement” value (PPD patient 1, 2 hr) was 4 and the “MADRS Reported sadness score” value (PPD patient 1, 2 hr) was 0. The “MADRS Suicidal Thoughts improvement” value (PPD patient 1, 2 hr) was 0, the “MADRS Suicidal Thoughts score” value (PPD patient 1, 2 hr) was 0 and the “Total MADRS improvement” value (PPD patient 1, 2 hr) was 24. The “Total MADRS score” value (PPD patient 1, 2 hr) was 5, the “BPRS Anxiety improvement” value (PPD patient 1, Day 1) was 6 and the “BPRS Anxiety score” value (PPD patient 1, Day 1) was 1. For the same molecule, the “BPRS Blunted affect improvement” value (PPD patient 1, Day 1) was 0, the “BPRS Blunted affect score” value (PPD patient 1, Day 1) was 1 and the “BPRS Conceptual disorganization improvement” value (PPD patient 1, Day 1) was 0. For the same molecule, the “BPRS Conceptual disorganization score” value (PPD patient 1, Day 1) was 1, the “BPRS Depressive Mood improvement” value (PPD patient 1, Day 1) was 5 and the “BPRS Depressive Mood score” value (PPD patient 1, Day 1) was 1. The “BPRS Disorientation improvement” value (PPD patient 1, Day 1) was 0, the “BPRS Disorientation score” value (PPD patient 1, Day 1) was 1 and the “BPRS Emotional withdrawal improvement” value (PPD patient 1, Day 1) was 4. For the same molecule, the “BPRS Emotional withdrawal score” value (PPD patient 1, Day 1) was 1, the “BPRS Excitement improvement” value (PPD patient 1, Day 1) was 1 and the “BPRS Excitement score” value (PPD patient 1, Day 1) was 1. The “BPRS Grandiosity improvement” value (PPD patient 1, Day 1) was 0, the “BPRS Grandiosity score” value (PPD patient 1, Day 1) was 1 and the “BPRS Guilt feelings improvement” value (PPD patient 1, Day 1) was 5. The “BPRS Guilt feelings score” value (PPD patient 1, Day 1) was 1, the “BPRS Hallucinatory behaviour improvement” value (PPD patient 1, Day 1) was 0 and the “BPRS Hallucinatory behaviour score” value (PPD patient 1, Day 1) was 1. For the same molecule, the “BPRS Hostility improvement” value (PPD patient 1, Day 1) was 0, the “BPRS Hostility score” value (PPD patient 1, Day 1) was 1 and the “BPRS Mannerisms and Posturing improvement” value (PPD patient 1, Day 1) was 0. For the same molecule, the “BPRS Mannerisms and Posturing score” value (PPD patient 1, Day 1) was 1, the “BPRS Motor retardation improvement” value (PPD patient 1, Day 1) was 0 and the “BPRS Motor retardation score” value (PPD patient 1, Day 1) was 1. The “BPRS Somatic Concern improvement” value (PPD patient 1, Day 1) was 5, the “BPRS Somatic Concern score” value (PPD patient 1, Day 1) was 1 and the “BPRS Suspiciousness improvement” value (PPD patient 1, Day 1) was 0. For the same molecule, the “BPRS Suspiciousness score” value (PPD patient 1, Day 1) was 1, the “BPRS Tension improvement” value (PPD patient 1, Day 1) was 5 and the “BPRS Tension score” value (PPD patient 1, Day 1) was 1. For the same molecule, the “BPRS Uncooperativeness improvement” value (PPD patient 1, Day 1) was 0, the “BPRS Uncooperativeness score” value (PPD patient 1, Day 1) was 1 and the “BPRS Unusual Thought Content improvement” value (PPD patient 1, Day 1) was 0. The “BPRS Unusual Thought Content score” value (PPD patient 1, Day 1) was 1, the “MADRS Apparent sadness improvement” value (PPD patient 1, Day 1) was 5 and the “MADRS Apparent sadness score” value (PPD patient 1, Day 1) was 0. For the same molecule, the “MADRS Concentration Difficulties improvement” value (PPD patient 1, Day 1) was 0, the “MADRS Concentration Difficulties score” value (PPD patient 1, Day 1) was 0 and the “MADRS Inability to Feel improvement” value (PPD patient 1, Day 1) was 3. For the same molecule, the “MADRS Inability to Feel score” value (PPD patient 1, Day 1) was 0, the “MADRS Inner Tension improvement” value (PPD patient 1, Day 1) was 5 and the “MADRS Inner Tension score” value (PPD patient 1, Day 1) was 0. The “MADRS Lassitude improvement” value (PPD patient 1, Day 1) was 3, the “MADRS Lassitude score” value (PPD patient 1, Day 1) was 0 and the “MADRS Pessimistic Thoughts improvement” value (PPD patient 1, Day 1) was 4. The “MADRS Pessimistic Thoughts score” value (PPD patient 1, Day 1) was 0, the “MADRS Reduced Sleep improvement” value (PPD patient 1, Day 1) was 5 and the “MADRS Reduced Sleep score” value (PPD patient 1, Day 1) was 0. For the same molecule, the “MADRS Reduced appetite improvement” value (PPD patient 1, Day 1) was 0, the “MADRS Reduced appetite score” value (PPD patient 1, Day 1) was 0 and the “MADRS Reported sadness improvement” value (PPD patient 1, Day 1) was 4. The “MADRS Reported sadness score” value (PPD patient 1, Day 1) was 0, the “MADRS Suicidal Thoughts improvement” value (PPD patient 1, Day 1) was 0 and the “MADRS Suicidal Thoughts score” value (PPD patient 1, Day 1) was 0. The “Total MADRS improvement” value (PPD patient 1, Day 1) was 29, the “Total MADRS score” value (PPD patient 1, Day 1) was 0 and the “BIMF TOTAL Δ vs Day 0” value (PPD patient 1, Day 7) was 13. The “BIMF domain Adjustment % Improvement” value (PPD patient 1, Day 7) was 20.00%, the “BIMF domain Adjustment score” value (PPD patient 1, Day 7) was 6 and the “BIMF domain Adjustment Δ vs Day 0” value (PPD patient 1, Day 7) was 1. The “BIMF domain Infant Care % Improvement” value (PPD patient 1, Day 7) was 0.00%, the “BIMF domain Infant Care score” value (PPD patient 1, Day 7) was 12 and the “BIMF domain Infant Care Δ vs Day 0” value (PPD patient 1, Day 7) was 0. The “BIMF domain Management % Improvement” value (PPD patient 1, Day 7) was 18%, the “BIMF domain Management score” value (PPD patient 1, Day 7) was 33 and the “BIMF domain Management Δ vs Day 0” value (PPD patient 1, Day 7) was 5. The “BIMF domain Mother-Child Interaction score” value (PPD patient 1, Day 7) was 17, the “BIMF domain Mother-Child Interaction Δ vs Day 0” value (PPD patient 1, Day 7) was 2 and the “BIMF domain Psychological Well-being score” value (PPD patient 1, Day 7) was 53. The “BIMF domain Psychological Well-being Δ vs Day 0” value (PPD patient 1, Day 7) was 9, the “BIMF domain Self-Care % Improvement” value (PPD patient 1, Day 7) was 44% and the “BIMF domain Self-Care score” value (PPD patient 1, Day 7) was 13. For the same molecule, the “BIMF domain Self-Care Δ vs Day 0” value (PPD patient 1, Day 7) was 4, the “BIMF domain Social Support score” value (PPD patient 1, Day 7) was 18 and the “BIMF domain Social Support Δ vs Day 0” value (PPD patient 1, Day 7) was 1. For the same molecule, the “BIMF item 1 (I am a good mother) score” value (PPD patient 1, Day 7) was 6, the “BIMF item 1 Δ vs Day 0” value (PPD patient 1, Day 7) was 0 and the “BIMF item 2 (I feel rested) score” value (PPD patient 1, Day 7) was 2. The “BIMF item 2 Δ vs Day 0” value (PPD patient 1, Day 7) was 2, the “BIMF item 3 (comfortable with the way I've chosen to feed my baby) score” value (PPD patient 1, Day 7) was 6 and the “BIMF item 3 Δ vs Day 0” value (PPD patient 1, Day 7) was 0. The “BIMF item 4 (My baby and I understand each other) score” value (PPD patient 1, Day 7) was 5, the “BIMF item 4 Δ vs Day 0” value (PPD patient 1, Day 7) was 0 and the “BIMF item 5 (able to relax and enjoy time with my baby) score” value (PPD patient 1, Day 7) was 6. The “BIMF item 5 Δ vs Day 0” value (PPD patient 1, Day 7) was 1, the “BIMF item 6 (people I can trust to care for my baby when I need a break) score” value (PPD patient 1, Day 7) was 6 and the “BIMF item 6 Δ vs Day 0” value (PPD patient 1, Day 7) was 0. The “BIMF item 7 Δ vs Day 0” value (PPD patient 1, Day 7) was 0, the “BIMF item 8 (getting enough adult interaction) score” value (PPD patient 1, Day 7) was 6 and the “BIMF item 8 Δ vs Day 0” value (PPD patient 1, Day 7) was 0. For the same molecule, the “BIMF item 9 (getting enough encouragement from other people) score” value (PPD patient 1, Day 7) was 6, the “BIMF item 9 Δ vs Day 0” value (PPD patient 1, Day 7) was 1 and the “BIMF item 10 (I trust my own feelings (instincts)) score” value (PPD patient 1, Day 7) was 6. For the same molecule, the “BIMF item 10 Δ vs Day 0” value (PPD patient 1, Day 7) was 1, the “BIMF item 11 (a little time each week to do something for myself) score” value (PPD patient 1, Day 7) was 6 and the “BIMF item 11 Δ vs Day 0” value (PPD patient 1, Day 7) was 1.
